Test results taken from patent US9669003B2, “Use of flavone and flavanone derivatives in preparation of sedative and hypnotic drugs” (priority 2012, dated 2017).
Marks after values point to notes of the source that are not given here.

system: Kunming mice; assay: Influence on autonomic activity of normal mice (ZIL-2 mice autonomic activity meter, counts within 10 min); format: in vivo; conditions: intragastric, 25 mg/kg, 1 h after administration, x ± s, n = 10
Source text: (§1) 1.1 Animals for experiments: Kunming mice, weighting 18.9˜22.2 g for females, and 20.2˜23.0 g for males, licensed under SCXK-(Ji) 2007-0003, and provided by The experimental animal centre, Jilin University.
(§2) 1.2 Chemicals for experiments: The flavone derivatives provided in Examples 1-41 and the flavanone derivatives provided in Examples 42-71 are all formulated with 0.5% sodium carboxymethyl cellulose as solutions with required concentrations.
(§3) 1.3 Grouping of animals: 6420 animals are employed in the entire experiments and 2140 of the animals are randomly divided into 214 groups by gender, and the […] include: control group, low dosage group for each experimental drugs (25 mg/kg), medium dosage group for each experimental drugs (50 mg/kg), and high dosage group for each experimental drugs (100 mg/kg). Each group has 10 animals and either female or male constitutes half of the group. The groups are used in behavior observation and voluntary action observation. The other 4280 animals are randomly divided into 214 groups by gender respectively (the grouping way is the same with that described above). Each group has 20 animals and either female or male constitutes half of the group. In each group, 10 animals are used in hypnosis experimentations with pentobarbital sodium doses below the threshold, and the other 10 animals are used hypnosis experimentations with pentobarbital sodium doses at the threshold.
1.4 Experimental instrument and agents: ZIL-2 mice autonomic activity meter, production of Institute of Materia Medica of Chinese Academy of Medical Sciences; pentobarbital sodium, Lot: 100808, 25 g/bottle, Beijing Chemical Reagent Company equipment imported from Germany.
1.5.2 Influence on Autonomic Activity of Normal Mice
After observing the general behavior, in 1 h, 2 h and 24 h after drug administration, respectively, ZIL-2 mice autonomic activity meter is put respectively. Number of autonomic activities of each group of mice is measured within 10 min. Results among groups are compared.
(§4) Number of autonomic activities is detected by leneve Test for homogeneity of variance. If the homogeneity of variance is good (P>0.05), statistical analysis is performed with ANOVA. If ANOVA have statistical significance (P≦0.05), Dunnett's test for multiple comparisons analysis is performed. Number of animals of sleeping mice is applied of ANOVA. Incidence rate of animal asleep is applied of χ2 test. Sleep latency and sleep duration are recorded in min, averaged by group, represented by standard deviation, and undergo statistical analysis using ANOVA.

SMILES	Times of activities in 1 h after drug administration/10 min
COc1cc(OC)c2c(=O)cc(-c3ccc(OC)c(O)c3)oc2c1 [Example 4, 3′-hydroxyl-5,7,4′-trimethoxyl-flavone]	258.2 ± 44.2 /10 min

same assay, conditions: intragastric, 25 mg/kg, 2 h after administration, x ± s, n = 10

SMILES	Times of activities in 2 h after drug administration/10 min
COc1cc(OC)c2c(=O)cc(-c3ccc(OC)c(O)c3)oc2c1 [Example 4, 3′-hydroxyl-5,7,4′-trimethoxyl-flavone]	250.3 ± 53.9 /10 min

same assay, conditions: intragastric, 25 mg/kg, 24 h after administration, x ± s, n = 10

SMILES	Times of activities in 24 h after drug administration/10 min
COc1cc(OC)c2c(=O)cc(-c3ccc(OC)c(O)c3)oc2c1 [Example 4, 3′-hydroxyl-5,7,4′-trimethoxyl-flavone]	309.1 ± 76.1 /10 min

same assay, conditions: intragastric, 50 mg/kg, 1 h after administration, x ± s, n = 10

SMILES	Times of activities in 1 h after drug administration/10 min
COc1cc(OC)c2c(=O)cc(-c3ccc(OC)c(O)c3)oc2c1 [Example 4, 3′-hydroxyl-5,7,4′-trimethoxyl-flavone]	219.3 ± 42.7 /10 min

same assay, conditions: intragastric, 50 mg/kg, 2 h after administration, x ± s, n = 10

SMILES	Times of activities in 2 h after drug administration/10 min
COc1cc(OC)c2c(=O)cc(-c3ccc(OC)c(O)c3)oc2c1 [Example 4, 3′-hydroxyl-5,7,4′-trimethoxyl-flavone]	223.5 ± 41.3 /10 min

same assay, conditions: intragastric, 50 mg/kg, 24 h after administration, x ± s, n = 10

SMILES	Times of activities in 24 h after drug administration/10 min
COc1cc(OC)c2c(=O)cc(-c3ccc(OC)c(O)c3)oc2c1 [Example 4, 3′-hydroxyl-5,7,4′-trimethoxyl-flavone]	318.4 ± 96.3 /10 min

same assay, conditions: intragastric, 100 mg/kg, 1 h after administration, x ± s, n = 10

SMILES	Times of activities in 1 h after drug administration/10 min
COc1cc(OC)c2c(=O)cc(-c3ccc(OC)c(O)c3)oc2c1 [Example 4, 3′-hydroxyl-5,7,4′-trimethoxyl-flavone]	124.2 ± 49.1 /10 min

same assay, conditions: intragastric, 100 mg/kg, 2 h after administration, x ± s, n = 10

SMILES	Times of activities in 2 h after drug administration/10 min
COc1cc(OC)c2c(=O)cc(-c3ccc(OC)c(O)c3)oc2c1 [Example 4, 3′-hydroxyl-5,7,4′-trimethoxyl-flavone]	127.2 ± 41.9 /10 min

same assay, conditions: intragastric, 100 mg/kg, 24 h after administration, x ± s, n = 10

SMILES	Times of activities in 24 h after drug administration/10 min
COc1cc(OC)c2c(=O)cc(-c3ccc(OC)c(O)c3)oc2c1 [Example 4, 3′-hydroxyl-5,7,4′-trimethoxyl-flavone]	303.2 ± 90.1 /10 min

system: Kunming mice; assay: Influence on hypnosis effect with pentobarbital sodium doses at the threshold (50 mg/kg i.p.); format: in vivo; conditions: 25 mg/kg intragastric single dose, pentobarbital sodium 50 mg/kg i.p. 60 min later, x ± s, n = 10
Source text: as §1, §2, §3
1.5.4 Influence on Hypnosis Effect with Mice Pentobarbital Sodium Doses at the Threshold
(§5) The drug is intragastric administered in mice for single time, 2 animals of each group are given drug per round with the dosing interval of 40 min (±5 min). According to the administration round, in 60 min (±5 min) of each round after the drug administration, the animals were intraperitoneally injected 0.3% sodium pentobarbital 50 mg/kg, respectively. Time to fall asleep (sleep latency) and sleep duration of the animals were recorded within under sleep determination standard of loss of righting reflex more than 1 min.
as §4

SMILES	duration of sleep [min]	time to sleep [min]
COc1cc(OC)c2c(=O)cc(-c3ccc(OC)c(O)c3)oc2c1 [Example 4, 3′-hydroxyl-5,7,4′-trimethoxyl-flavone]	63.65 ± 19.54	3.75 ± 1.81

same assay, conditions: 50 mg/kg intragastric single dose, pentobarbital sodium 50 mg/kg i.p. 60 min later, x ± s, n = 10

SMILES	duration of sleep [min]	time to sleep [min]
COc1cc(OC)c2c(=O)cc(-c3ccc(OC)c(O)c3)oc2c1 [Example 4, 3′-hydroxyl-5,7,4′-trimethoxyl-flavone]	69.91 ± 19.82	3.41 ± 1.69

same assay, conditions: 100 mg/kg intragastric single dose, pentobarbital sodium 50 mg/kg i.p. 60 min later, x ± s, n = 10

SMILES	duration of sleep [min]	time to sleep [min]
COc1cc(OC)c2c(=O)cc(-c3ccc(OC)c(O)c3)oc2c1 [Example 4, 3′-hydroxyl-5,7,4′-trimethoxyl-flavone]	81.66 ± 30.31	2.51 ± 1.61

system: Kunming mice; assay: Influence on hypnosis effect with pentobarbital sodium doses below the threshold (25 mg/kg i.p.); format: in vivo; conditions: test drug 25 mg/kg intragastric single dose, pentobarbital sodium 25 mg/kg i.p. 60 min later, sleep observed in 30 min, n = 10
Source text: as §1, §2, §3
1.5.3 Influence on Hypnosis Effect with Mice Pentobarbital Sodium Doses Below the Threshold
as §5, with “25” for “50”, “Sleep condition” for “Time to fall asleep (sleep latency) and sleep duration”, “observed” for “recorded”, “30 min (under” for “under”, “min). After animals undergo loss of righting reflex, number of the animals is recorded, to calculate sleep percentage.” for “min.”
as §4

SMILES	Number of sleeping animals	rate of sleeping (%)
COc1cc(OC)c2c(=O)cc(-c3ccc(OC)c(O)c3)oc2c1 [Example 4, 3′-hydroxyl-5,7,4′-trimethoxyl-flavone]	6	60** %

same assay, conditions: test drug 50 mg/kg intragastric single dose, pentobarbital sodium 25 mg/kg i.p. 60 min later, sleep observed in 30 min, n = 10

SMILES	Number of sleeping animals	rate of sleeping (%)
COc1cc(OC)c2c(=O)cc(-c3ccc(OC)c(O)c3)oc2c1 [Example 4, 3′-hydroxyl-5,7,4′-trimethoxyl-flavone]	7	70** %

same assay, conditions: test drug 100 mg/kg intragastric single dose, pentobarbital sodium 25 mg/kg i.p. 60 min later, sleep observed in 30 min, n = 10

SMILES	Number of sleeping animals	rate of sleeping (%)
COc1cc(OC)c2c(=O)cc(-c3ccc(OC)c(O)c3)oc2c1 [Example 4, 3′-hydroxyl-5,7,4′-trimethoxyl-flavone]	8	80*** %
